Measurements as given in EP3727043B1 (Golden Gait Biotech, S.L., priority 2017, dated 2019).
Where two headings read alike, the source gives them in different places.

Columns and labels:
[1] = system: patients with idiopathic PD and levodopa induced dyskinesias (LIDs)
Method: At the time the study was performed (2009), there was no FDA accepted instrument for measuring treatment efficacy for LIDs. Therefore, several secondary objectives were utilized to assess efficacy including the Unified Dyskinesia Rating Scale (UDysRS).
A total of 65 male and female subjects with idiopathic PD with LIDs were randomized in the study. The study consisted of 4 phases (FIG. 6A): screening phase (up to 3 weeks), double-blind treatment phase (10 weeks), taper phase (2 weeks), and follow-up phase (2 weeks). The approximate duration of the study for each subject was 17 weeks. […] During the double-blind treatment phase, dosing was begun at Visit 0 at 1 mg every 6 hours (total daily dose [TDD] = 4 mg/day) and escalated upwards at 2-week intervals as follows: 2 mg every 6 hours (TDD = 8 mg/day) at Visit 1 (Week 2); 4 mg every 6 hours (TDD = 16 mg/day) at Visit 2 (Week 4); 6 mg every 6 hours (TDD = 24 mg/day) at Visit 3 (Week 6). Subjects were maintained on 24 mg/day for 4 weeks. The subsequent taper phase (2 weeks total), beginning at Visit 4 (Week 10), consisted of 9 days of drug taper and 5 days off drug prior to Visit 5 (final safety visit). […] Ondansetron was provided by the sponsor and dispensed with each dose escalation step with instructions to use it for nausea and vomiting only during the first 4 days following dose initiation or escalation. […] No other dose down-titration was allowed. Table 5. Dose Escalation Schedule
A total of 65 patients with idiopathic PD and levodopa induced dyskinesias (LIDs) were randomized. Patients were required to have a diagnosis of idiopathic PD and be within a Hoehn & Yahr Stage II - IV while in a peak "ON" state(levodopa in a therapeutic range). They had to have moderate to severely disabling LIDs for at least 25% of the waking day, as determined by Questions 32 and 33 in Part II of the UPDRS and a Mini-Mental State Examination (MMSE) score of ≥26. Patients with atypical Parkinson disorders, prior deep brain stimulation (DBS), unstable angina, a history of ventricular arrhythmias, or active peptic ulcer or a history of schizophrenia, schizoaffective disorder, or bipolar disease were excluded. Patients who actively smoked were also excluded. Table 9: Demographics
The drug, or a placebo identical in appearance and packaging, was administered orally 4 times a day in a blinded fashion. Patients were examined while in an "ON" state, when levodopa was in a therapeutic range. During the treatment phase, dosing was begun at 1 mg every 6 hours (total daily dose=4 mg/day) and escalated upwards at 2-week intervals as follows: 2 mg every 6 hours at Visit 1; 4 mg every 6 hours at Visit 2; 6 mg every 6 hours at Visit 3. Patients were maintained on 24 mg/day for 4 weeks. All patients, study site personnel, raters and the sponsor were blinded to treatment assignment.
The original UPDRS scale was used. […] In the UPDRS Part II, Question 13 is on Falling unrelated to Freezing. […] In Part II, Question 14 is on Freezing when Walking. This is a 5-point item and has two variables freezing and falls. […] Questions 13 and 14 were compared separately (Table 11). […] Table 10: UPDRS Part II (ADL), UPDRS Part III (Motor Examination)
LIDs were assessed by the UDysRS, the main measure of LIDs (Table 12). […] The study was conducted in accordance with the Declaration of Helsinki and Good Clinical Practice Guidelines. All sites received approval from an institutional review board and written informed consent was obtained from each patient prior to participation. Table 12. Unified Dyskinesia Rating Scale (UDysRS)
All hypotheses were tested using 2-sided tests with alpha set at the 0.050 level of significance. In general, efficacy data were summarized by treatment group, and safety data were summarized by treatment group and overall.

[2] = system: patients with idiopathic PD and levodopa induced dyskinesias (LIDs); remark: listed apart in the source
Method: Efficacy was measured with the Unified Dyskinesia Rating Scale (UDysRS), a semi- quantitative assessment, FDA-validated instrument to assess gait, balance and dyskinesia in PD. […] Dosing was begun at 1 mg every 6 hours to a final dose of 24 mg per day.
All hypotheses were tested using 2-sided tests with alpha set at the 0.050 level of significance. In general, efficacy data were summarized by treatment group, and safety data were summarized by treatment group and overall. In all analyses, assumptions such as normality and homogeneity of variance were examined prior to conducting the proposed parametric statistical procedures. Categorical variables were analyzed by Fisher's exact 2- tailed test and continuous variables were tested under 2-sample t-tests. The equality of variances was examined using an F-test before applying the 2-sample t-test.

[3] = oral administration of capsules
clinical = details: human, plasma, po
[4] = Baseline to Week 10, 30 NP002 patients
[5] = Baseline to Week 10, minus = improvement, 30 NP002 patients
[6] = Baseline to Week 10, plus = worsening, 30 NP002 patients
[7] = NP002 Patients Baseline (before treatment)
[8] = NP002 patients at 10 Weeks, up to 24 mg/day orally
[9] = NP002 patients at Baseline (before treatment)

CN1CCCC1c1cccnc1.O=C(O)C(O)C(O)C(=O)O (centres unmarked) [NP002, Nicotine Bitartrate]
UPDRS Part II (ADL) and Part III (Motor Examination) after treatment, NP002 vs placebo ([1]; 10 weeks): no significant differences
Falls (UPDRS Part II Question 13), number of patients with change -3 ([1]; Baseline to Week 10, 5-point scale, minus = improvement, 30 NP002 patients): 1
FOG (UPDRS Part II Question 14), number of patients with No Change [1, 4]: 17
FOG (UPDRS Part II Question 14), number of patients with change +2 [1, 4]: 0
FOG (UPDRS Part II Question 14), number of patients with change +3 [1, 4]: 0
FOG (UPDRS Part II Question 14), number of patients with change -1 [1, 4]: 10
FOG (UPDRS Part II Question 14), number of patients with change -2 [1, 4]: 2
Falls (UPDRS Part II Question 13), number of patients with No Change [1, 4]: 16
Falls (UPDRS Part II Question 13), number of patients with change +2 [1, 4]: 0
Falls (UPDRS Part II Question 13), number of patients with change +3 [1, 4]: 0
Falls (UPDRS Part II Question 13), number of patients with change -1 [1, 4]: 7
Falls (UPDRS Part II Question 13), number of patients with change -2 [1, 4]: 5
Pull Test (Item 30 of the UPDRS Part III), number of patients with No Change [1, 4]: 19
Pull Test (Item 30 of the UPDRS Part III), number of patients with change +2 [1, 4]: 0
Pull Test (Item 30 of the UPDRS Part III), number of patients with change +3 [1, 4]: 0
Pull Test (Item 30 of the UPDRS Part III), number of patients with change -1 [1, 4]: 5
Pull Test (Item 30 of the UPDRS Part III), number of patients with change -2 [1, 4]: 5
FOG (UPDRS Part II Question 14), number of patients with change -3 [1, 5]: 0
Pull Test (Item 30 of the UPDRS Part III), number of patients with change -3 [1, 5]: 0
FOG (UPDRS Part II Question 14), number of patients with change +1 [1, 6]: 1
Falls (UPDRS Part II Question 13), number of patients with change +1 [1, 6]: 1
Pull Test (Item 30 of the UPDRS Part III), number of patients with change +1 [1, 6]: 1
patients with a reduction in falls ([1]; Fourteen of 30 NP002 patients, p=0.00857 vs placebo): 47%
Total Score UDysRS [1, 7]: 51.7 +/-16.9
UDysRS Evaluation of Dyskinesias on 7 Body Parts [1, 7]: 13.5 +/-5.4
UDysRS Evaluation of Dyskinesias on Ambulation [1, 7]: 9.5 +/- 6.0
UDysRS Evaluation of Dyskinesias on Communication [1, 7]: 10.5 +/-4.8
UDysRS Evaluation of Dyskinesias on Dressing [1, 7]: 11.3 +/-6.2
UDysRS Evaluation of Dyskinesias on Drinking [1, 7]: 9.1 +/- 5.6
Total Score UDysRS ([1]; NP002 Patients Week 10): 36.4 +/-16.1
UDysRS Evaluation of Dyskinesias on 7 Body Parts ([1]; NP002 Patients Week 10): 8.5 +/- 5.4
UDysRS Evaluation of Dyskinesias on Ambulation ([1]; NP002 Patients Week 10): 5.1 +/- 5.3
UDysRS Evaluation of Dyskinesias on Communication ([1]; NP002 Patients Week 10): 7.0 +/- 5.0
UDysRS Evaluation of Dyskinesias on Dressing ([1]; NP002 Patients Week 10): 6.9 +/- 5.5
UDysRS Evaluation of Dyskinesias on Drinking ([1]; NP002 Patients Week 10): 5.3 +/- 5.0
UPDRS II [1, 8]: 10.1 ± 5.3
UPDRS III [1, 8]: 17.3 ± 10.6
UPDRS II [1, 9]: 13.1 ± 6.0
UPDRS III [1, 9]: 20.0 ± 8.8
Difference in LS Means 95% Confidence Interval, UPDRS Part III ([1]; NP002 versus Placebo, p-value 0.337): -18.3 ± 1.8 (-5.8, 2.0)
Difference in LS Means 95% Confidence Interval, UPDRS Part II ([1]; NP002 versus Placebo, p-value 0.631): 10.1 ± 0.96 (-3.2, 2.0)
UDysRS Evaluation of Dyskinesias on Ambulation, Difference LS Means ([1]; NP002 vs placebo, p-value 0.011*): -3.7 +/-1.9
UDysRS Evaluation of Dyskinesias on 7 Body Parts, Difference LS Means ([1]; NP002 vs placebo, p-value 0.062): -2.8 +/-2.6
Total Score UDysRS, Difference LS Means ([1]; NP002 vs placebo, p-value 0.092): -6.7 +/-4.1
UDysRS Evaluation of Dyskinesias on Dressing, Difference LS Means ([1]; NP002 vs placebo, p-value 0.139): -2.1 +/-1.4
UDysRS Evaluation of Dyskinesias on Drinking, Difference LS Means ([1]; NP002 vs placebo, p-value 0.171): -2.4 +/-1.7
UDysRS Evaluation of Dyskinesias on Communication, Difference LS Means ([1]; NP002 vs placebo, p-value 0.189): -1.9 +/-1.4
patients with a reduction in retropulsion ([1]; Ten of 30 NP002 patients, p=0.0228 vs placebo): 33.3%
patients with a reduction in FOG ([1]; Twelve of 30 NP002 patients, p=0.04301 vs placebo): 40%
PGI-C responders (subjects with a score of 1, 2, or 3) ([1]; Visit 4 (Week 10), 21 responders, p = 0.0048 vs placebo): 77.8%
UPDRS II Change ([1]; baseline to 10 weeks): 2.8 + 5.2
UPDRS III Change ([1]; baseline to 10 weeks): 2.0 + 7.5
patient- and physician-rated assessments of efficacy versus placebo ([1]; human, in vivo): superior to placebo
patients with either a reduction or absence of FOG during the active phase ([1]; human, in vivo): ~73%
patients with either a reduction or absence of falls during the active phase ([1]; human, in vivo): ~87%
patients with no FOG during the study ([1]; of 30 NP002 patients): 10
patients with no falls during the study ([1]; of 30 NP002 patients): 12
reduction (improvement) in the effect of LIDs on ambulation, UDysRS ambulation subtest ([1]; p=0.011 vs placebo): 46%
reduction in LIDs, Total UDysRS ([1]; p=0.092 vs placebo): 39%
Adverse Event: Constipation ([2]; N=35): 5 (14.3) Number (%)
Adverse Event: Diarrhea ([2]; N=35): 2 (5.7) Number (%)
Adverse Event: Dizziness ([2]; N=35): 7 (20.0) Number (%)
Adverse Event: Fatigue ([2]; N=35): 3 (8.6) Number (%)
Adverse Event: Headache ([2]; N=35): 2 (5.7) Number (%)
Adverse Event: Insomnia ([2]; N=35): 0 (0.0) Number (%)
Adverse Event: Nausea ([2]; N=35): 13 (37.1) Number (%)
Adverse Event: Nightmare ([2]; N=35): 2 (5.7) Number (%)
Adverse Event: Pain ([2]; N=35): 3 (8.6) Number (%)
Adverse Event: Pain in extremity ([2]; N=35): 2 (5.7) Number (%)
Adverse Event: Tremor ([2]; N=35): 2 (5.7) Number (%)
Adverse Event: Vomiting ([2]; N=35): 4 (11.4) Number (%)
Number (%) of subject with any AE ([2]; N=35): 26 (74.3) Number (%)
Serum cotinine levels ([2]; compliance check): paralleled dosing of nicotine
adverse events reported ([2]; number of events among NP002 patients): 45
Primary reason for study discontinuation: Adverse event ([2]; of 35 randomized): 6 (17.1) n (%)
Primary reason for study discontinuation: Protocol violation ([2]; of 35 randomized): 2 (5.7) n (%)
Subjects who completed study per protocol ([2]; of 35 randomized): 25 (71.4) n (%)
Subjects who discontinued the study ([2]; of 35 randomized): 10 (28.6) n (%)
subjects who completed the study ([2]; of 35 randomized): 25 subjects
subjects who withdrew because of AEs ([2]; of 35 randomized): 6 subjects
subjects who withdrew because of protocol violations ([2]; of 35 randomized): 2 subjects
subjects who withdrew from the study ([2]; of 35 randomized): 10 subjects
Primary reason for study discontinuation: Other ([2]; subject going on vacation, of 35 randomized): 2 (5.7) n (%)
Subjects who required dose reduction or discontinuation of study treatment ([2]; treated subjects with any adverse events with action taken = reduced/discontinued study drug, of 35 randomized): 7 (20.0) n (%)
time by which the plasma concentration of nicotine returns close to baseline [3]: ~ 6 hours
Tmax (clinical): ~1.5 h
